How the values were obtained:
[1] = WO 00/21390; cited from earlier work
[2] = Masking or reduction of unpleasant (bitter) flavour impression in preparations, rated by a group of experts; conditions: against caffeine, quinine, naringin, potassium chloride, magnesium sulfate, beta-lactam antibiotics
Description: (§1) To quantify the reduction in the bitter impression with the use of γ-aminobutyric acid, the bitterness of a 500 ppm caffeine solution (comparative solution; not according to the invention) and of four samples according to the invention containing 500 ppm of caffeine and differing amounts of γ-aminobutyric acid was determined by a group of experts (rating 0 [not bitter] to 10 [extremely bitter]).
as §1, with “impression,” for “impression with the use of γ-aminobutyric acid,”, “12.5” for “500”, “quinine hydrochloride” for “caffeine”, “eight” for “four”, “5” for “10”
To quantify the reduction in the bitter impression, the bitterness of (a) a 500 ppm caffeine solution (basic solution), (b) a sample containing 500 ppm of caffeine, 100 ppm of homoeriodictyol sodium salt and 20 ppm of γ-aminobutyric acid, and (c) a sample containing 500 ppm of caffeine and 20 ppm of γ-aminobutyric acid was determined by a group of experts (rating 1 [not bitter] to 10 [extremely bitter]). […]

Compound	concentration needed as bitterness-masking agent [1]	concentration in preparations at which the unpleasant, in particular bitter, flavour impression is reduced or completely suppressed [2]
polyglutamic acid	around 1 wt. %	
NCCCC(=O)O [γ-aminobutyric acid]		less than 0.1 wt. %

Source: patent US20100331349A1, “Use of gamma-aminobutyric acid to mask or reduce an unpleasant flavour impression and preparations containing gamma-aminobutyric” (Symrise GmbH & Co. KG, priority 2004, published 2010)
